Here are results for three molecules from publication PMC5740381 (Antimicrobial Agents and Chemotherapy, 2017).

Read-outs that look alike come from different tables or passages of the source. Some results are limits rather than exact numbers.

In test [1] the test system is HCV genotype 5a replicon cells. The experiment in a line: Drug-resistant colony selection in replicon cells. Type of test: cell-based, Hepatitis C virus. The text has this: (§1) . After approximately 3 weeks of treatment, the surviving replicon colonies in one plate for each selection condition were stained with crystal violet and counted, whereas approximately 20 to 30 colonies in a replicate plate or most of the colonies, if less than 20 colonies survived the selection, were picked and further expanded for genotyping. The expanded colonies were lysed in CellsDirect lysis buffer (Invitrogen, MA), and the NS3-coding region from each colony was amplified by reverse transcription-PCR and sequenced. For genotype 1a, 1b, 2a, and 5a colonies, the full-length NS3 sequence was determined, whereas for colonies of the chimeric replicon containing the N-terminal region of NS3 from genotype 2b, 3a, 4a, or 6a, the sequence encoding the NS3 N-terminal region was determined. We defined a substitution in a replicon to be an amino acid difference in a sequence from a posttreatment sample relative to the sequence of the corresponding untreated sample. For resistance selection studies, NS3 substitutions detected at the following amino acid positions associated with resistance to the HCV PI class in >2 colonies in each replicon selection are reported: 36, 43, 54, 55, 56, 80, 122, 155, 156, and 168. In addition, substitutions detected at other amino acid positions in the NS3 protease domain in >2 colonies in each replicon selection are also reported.

For test [2], the system named is HCV genotype 4a replicon cells. As to the kind of experiment: Drug-resistant colony selection in replicon cells. Type of test: cell-based, Hepatitis C virus.
Description: as §1

Test [3] relates to HCV genotype 2b replicon cells. As to the kind of experiment: Drug-resistant colony selection in replicon cells. Type of test: cell-based, Hepatitis C virus.
Description: as §1

Test [4] relates to HCV genotype 3a replicon cells. The experiment in a line: Drug-resistant colony selection in replicon cells. Type of test: cell-based, Hepatitis C virus.
Description: as §1

Test [5] deals with HCV genotype 6a replicon cells. As to the kind of experiment: Drug-resistant colony selection in replicon cells. Type of test: cell-based, Hepatitis C virus.
Description: as §1

The subject of test [6] is HCV genotype 2a replicon cells. As to the kind of experiment: Drug-resistant colony selection in replicon cells. Type of test: cell-based, Hepatitis C virus.
Description: as §1

For test [7], the system named is HCV genotype 1 to 6 NS3/4A proteases. As to the kind of experiment: HCV NS3/4A protease biochemical assay, all genotypes. Further details: species or system Hepatitis C virus. The note with it: read-out: IC50, range over proteases. The text has this:
. […] Genes encoding NS3/4A were derived from laboratory strains 1a-H77 (GenBank accession number NC_004102) and 1b-N (GenBank accession number AF139594) or from clinical samples from patients infected with genotype 2a, 2b, 3a, or 4a. All patients provided written informed consent. Clinical studies were designed according to Good Clinical Practice guidelines, the Declaration of Helsinki, and applicable local regulations, with independent ethics committee or institutional review board approval for all study sites. The genotype 5a NS3/4A gene sequence was synthetically constructed based on the sequence of the clinical isolate SA13 (GenBank accession number AF064490) ([48]), whereas the genotype 6a NS3/4A gene sequence was synthetically constructed based on a consensus sequence derived from the alignment of 15 genotype 6a sequences available in GenBank. The NS3/4A genes were each cloned into the protein expression vector pET14b (Novagen, Madison, WI), and a clone with an NS3/4A protease sequence that matched the consensus sequence for each sample was subsequently selected for protein expression and purification. Protease activity was measured by continuous monitoring of the fluorescence change associated with the cleavage of a fluorogenic depsipeptide (EDANS/DABCYL) substrate using a purified recombinant HCV NS3/4A protease as described previously ([49]). […]

The test system of test [8] is HCV genotype 1b replicon. As to the kind of experiment: Transient replicon assay with engineered substitutions. The note with it: for EC50: read-out: Mean EC50 ± SD. Type of test: cell-based, Hepatitis C virus. The protocol: Mutagenesis was performed using a Change-IT multiple-mutation site-directed mutagenesis kit (USB, Cleveland, OH) or by cloning a synthesized DNA fragment encoding the amino acid substitution(s). The genotype 1a and 1b replicon shuttle vectors used for the introduction of the substitutions of interest in the NS3, NS5A, or NS5B gene for transient-transfection assays have been described previously ([28], [33]). The replicon shuttle vectors used for the introduction of substitutions in NS3 genes from other genotypes were similar to the stable replicon cell line constructs described above, except for the absence of the neo gene. After mutagenesis, the plasmids were linearized and RNA was transcribed and then used to transfect Huh-7 cells. Inhibition of HCV replication by the HCV inhibitors was measured by luciferase assay, as described above. Replication efficiency was calculated as a percentage of wild-type replication, as described previously ([28]).

For the molecule `CC(C)(C)[C@@H]1NC(=O)O[C@@H]2CCC[C@H]2OC/C=C/C(F)(F)c2nc3ccccc3nc2O[C@@H]2C[C@@H](C(=O)N[C@]3(C(=O)NS(=O)(=O)C4(C)CC4)C[C@H]3C(F)F)N(C2)C1=O` [Glecaprevir, (3aR,7S,10S,12R,21E,24aR)-7-tert-butyl-N-[(1R,2R)-2-(difluoromethyl)-1-{[(1-methylcyclopropyl)sulfonyl]carbamoyl}cyclopropyl]-20,20-difluoro-5,8-dioxo-2,3,3a,5,6,7,8,11,12,20,23,24a-dodecahydro-1H,10H-9,12-methanocyclopenta[18,19][1,10,17,3,6]trioxadiazacyclononadecino[11,12-b]quinoxaline-10-carboxamide], the Colony survival is 0.001% in test [1] (10× EC50); 0% in test [1] (100× EC50); 0.0015% in test [2] (10× EC50); 0.0018% in test [2] (100× EC50); more than 0.05% in test [3] (10× EC50); more than 0.05% in test [3] (100× EC50). Also, the Colony survival is reported as 0.1% in test [4] (10× EC50, 1 × 10^4 input cells); 0.0003% in test [4] (100× EC50); 0.018% in test [5] (10× EC50); 0% in test [5] (100× EC50); more than 0.05% in test [6] (10× EC50); more than 0.05% in test [6] (100× EC50). Besides, the IC50 in test [7] lay within 3.5 to 11.3 nM.

As for `C=C[C@@H]1C[C@]1(NC(=O)[C@@H]1C[C@@H]2CN1C(=O)[C@H](C(C)(C)C)NC(=O)O[C@@H]1C[C@H]1CCCCCc1nc3ccc(OC)cc3nc1O2)C(=O)NS(=O)(=O)C1CC1` [Grazoprevir], the EC50 was 39 ± 4.3 nM in test [8] (1b NS3 A156T); 68 ± 8.2 nM in test [8] (1b NS3 A156V); 8.5 ± 0.37 nM in test [8] (1b NS3 D168A); 0.78 ± 0.05 nM in test [8] (1b NS3 D168E); 4.1 ± 0.11 nM in test [8] (1b NS3 D168V); 0.19 ± 0.05 nM in test [8] (1b wild type, transient transfection).

`Cc1cnc(C(=O)N[C@H]2CCCCC/C=C\[C@@H]3C[C@@]3(C(=O)NS(=O)(=O)C3CC3)NC(=O)[C@@H]3C[C@@H](Oc4nc5ccccc5c5ccccc45)CN3C2=O)cn1` [Paritaprevir]: the Fold change in test [8] (1b NS3 A156T vs wild-type replicon) is recorded as 7.4 fold; in test [8] (1b NS3 A156V vs wild-type replicon), 21 fold; in test [8] (1b NS3 D168A vs wild-type replicon), 27 fold; in test [8] (1b NS3 D168E vs wild-type replicon) it was 4.4 fold; in test [8] (1b NS3 D168V vs wild-type replicon), 159 fold; in test [8] (1b NS3 R155K vs wild-type replicon), 40 fold. The Fold change in test [8] (1b NS3 T54A vs wild-type replicon) is given as 0.8 fold; in test [8] (1b NS3 V55A vs wild-type replicon) it was 0.6 fold; in test [8] (1b NS3 V170A vs wild-type replicon) it was 0.8 fold.
